Data from PMC8963254, “Effects of Lysine N-ζ-Methylation in Ultrashort Tetrabasic Lipopeptides (UTBLPs) on the Potentiation of Rifampicin, Novobiocin, and Niclosamide in Gram-Negative Bacteria” (Antibiotics, 2022).
≈ marks a conversion by molar mass, not a printed value. Like-named read-outs stand apart in the source and are kept apart here.

Legend:
[1] = tested on: MRSE 61589; format: cell-based, Staphylococcus epidermidis; conditions: 61589, 18 h
Procedure: (§1) The in vitro antibacterial activity of the UTBLPs was assessed against wild-type and clinically isolated bacterial strains. To obtain the MIC of the compounds, the microbroth dilution susceptibility assay was performed according to the Clinical and Laboratory Standards Institute (CLSI, Wayne, PA, USA) guidelines and as previously described. Briefly, the compounds at varying concentrations were incubated with bacterial inoculum (5 × 10^5 CFU/mL final concentration) at 37 °C for 18 h. Growth in the form of turbidity was confirmed using an EMax Plus microplate reader (Molecular Devices, San Jose, CA, USA) at 590 nm.

[2] = tested on: MSSE 81388; format: cell-based, Staphylococcus epidermidis; conditions: 18 h
Procedure: as §1

[3] = tested on: P. aeruginosa PA259-96196; experiment: microbe, parasite or virus in culture; format: cell-based, Pseudomonas aeruginosa; conditions: PA259-96196, 18 h
How it was run: (§2)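 Turbidity at 590 nm defined growth, from which the MIC was taken. Cultures at a final density of 5 × 10^5 CFU/mL were exposed to a range of compound levels at 37 °C for 18 h in a CLSI-based microdilution format.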

[4] = tested on: P. aeruginosa PA262-101856; experiment: microbe, parasite or virus in culture; format: cell-based, Pseudomonas aeruginosa; conditions: PA262-101856, 18 h
How it was run: as §2

[5] = tested on: E. cloacae 118564; experiment: microbe, parasite or virus in culture; format: cell-based, Enterobacter cloacae; conditions: 118564, 18 h
How it was run: as §2

[6] = tested on: P. aeruginosa PAO1; format: cell-based, Pseudomonas aeruginosa; conditions: PAO1, 18 h
Procedure: as §1

[7] = tested on: K. pneumoniae 113250; experiment: microbe, parasite or virus in culture; format: cell-based, Klebsiella pneumoniae; conditions: 113250, 18 h
How it was run: as §2

[8] = tested on: P. aeruginosa PA262-101856; format: cell-based, Pseudomonas aeruginosa; conditions: for MICUTBLP: UTBLP alone
How it was run: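 Values derive from a two-agent checkerboard with an 18 h, 37 °C incubation. FICI cut-offs: ≤0.5 synergy, 0.5–4 additive, >4 antagonism.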

[9] = tested on: S. aureus ATCC 29213; format: cell-based, Staphylococcus aureus
Procedure: (§3) The synergy of the UTBLPs with various antibiotics was assessed using checkerboard assay as previously described. Briefly, the combination of antibiotic and OMP at varying concentrations were incubated with bacterial inoculum (5 × 10^5 CFU/mL final concentration) at 37 °C for 18 h. Growth in the form of turbidity was confirmed using an EMax Plus microplate reader (Molecular Devices, Union City, CA, USA) at 590 nm. Fractional inhibitory concentration index (FICI) was used to evaluate the interaction between the antibiotic and the OMP. FICI is the sum of the FIC of the antibiotic and the FIC of the OMP. The FIC value is calculated by dividing the MIC of the agents in combination by the MIC of the agent alone. FICI ≤ 0.5 is synergistic, 0.5 < x ≤ 4 is additive, and >4 is antagonistic.

[10] = tested on: MRSA ATCC 33592; format: cell-based, Staphylococcus aureus
Procedure: as §3

[11] = tested on: A. baumannii ATCC 17978; format: cell-based, Acinetobacter baumannii; conditions: ATCC 17978, 18 h
Procedure: as §1

[12] = tested on: E. coli 94393; format: cell-based, Escherichia coli; conditions: for MICUTBLP: UTBLP alone
Procedure: as §3

[13] = tested on: E. coli ATCC 25922; format: cell-based, Escherichia coli; conditions: for MICUTBLP: UTBLP alone
Procedure: as §3

[14] = tested on: E. coli 94474; format: cell-based, Escherichia coli; conditions: for MICUTBLP: UTBLP alone
Procedure: as §3

[15] = tested on: A. baumannii AB92247; experiment: microbe, parasite or virus in culture; format: cell-based, Acinetobacter baumannii; conditions: AB92247, 18 h
How it was run: as §2

[16] = tested on: A. baumannii AB027; experiment: microbe, parasite or virus in culture; format: cell-based, Acinetobacter baumannii; conditions: AB027, 18 h
How it was run: as §2

[17] = tested on: E. faecium ATCC 27270; format: cell-based, Enterococcus faecium; conditions: ATCC 27270, 18 h
Procedure: as §1

[18] = tested on: E. faecalis ATCC 29212; format: cell-based, Enterococcus faecalis
Procedure: as §3

[19] = UTBLP in combination with novobiocin
[20] = UTBLP in combination with rifampicin
[21] = novobiocin in combination with the UTBLP
[22] = rifampicin in combination with the UTBLP
[23] = UTBLP alone, plate with chloramphenicol
[24] = UTBLP in combination with chloramphenicol
[25] = chloramphenicol in combination with the UTBLP

SMILES: CCCCCCCC(=O)N[C@@H](CCCCN)C(=O)NCCCN(CCCNC(=O)[C@H](CCCCN)NC(=O)CCCCCCC)CC(=O)N[C@@H](CCCCN)C(N)=O [UTBLP 1]
- MIC [1]: 32 µg/mL (≈ 38.8 µM)
- MIC [2]: 32 µg/mL (≈ 38.8 µM)
- MIC [3]: > 128 µg/mL
- MIC [4]: 128 µg/mL (≈ 155 µM)
- MIC [5]: > 128 µg/mL
- MIC [6]: >128 µg/mL
- MIC [7]: > 128 µg/mL
- Interpretation ([8]; UTBLP + novobiocin): Synergy (FICI ≤ 0.5 is synergistic)
- Interpretation ([8]; UTBLP + rifampicin): Synergy (FICI ≤ 0.5 is synergistic)
- MICUTBLP ([8]; plate with novobiocin): 128 µg/mL
- MICUTBLP ([8]; plate with rifampicin): 128 µg/mL
- MICUTBLP [MICcombo] [8, 19]: 16 µg/mL
- MICUTBLP [MICcombo] [8, 20]: 16 µg/mL
- MICantibiotic [MICcombo] [8, 21]: 64 µg/mL
- MICantibiotic [MICcombo] [8, 22]: 256 µg/mL
- MICUTBLP [9, 23]: 64 µg/mL
- MICUTBLP [MICcombo] [9, 24]: 0.25 µg/mL
- MICchloramphenicol [MICcombo] [9, 25]: 8 µg/mL
- Interpretation ([10]; UTBLP + chloramphenicol): Additive (0.5 < x ≤ 4 is additive)
- MICUTBLP [10, 23]: 128 µg/mL
- MICUTBLP [MICcombo] [10, 24]: 0.25 µg/mL
- MICchloramphenicol [MICcombo] [10, 25]: 64 µg/mL
- MIC [11]: >128 µg/mL
- Interpretation ([12]; UTBLP + novobiocin): Synergy (FICI ≤ 0.5 is synergistic)
- Interpretation ([12]; UTBLP + rifampicin): Synergy (FICI ≤ 0.5 is synergistic)
- MICUTBLP ([12]; plate with novobiocin): > 128 µg/mL
- MICUTBLP ([12]; plate with rifampicin): > 128 µg/mL
- MICUTBLP [MICcombo] [12, 19]: 8 µg/mL
- MICUTBLP [MICcombo] [12, 20]: 8 µg/mL
- MICantibiotic [MICcombo] [12, 21]: 0.5 µg/mL
- MICantibiotic [MICcombo] [12, 22]: 0.031 µg/mL
- Interpretation ([13]; UTBLP + chloramphenicol): Synergy (FICI ≤ 0.5 is synergistic)
- Interpretation ([13]; UTBLP + niclosamide): Synergy (FICI ≤ 0.5 is synergistic)
- Interpretation ([13]; UTBLP + novobiocin): Synergy (FICI ≤ 0.5 is synergistic)
- Interpretation ([13]; UTBLP + rifampicin): Synergy (FICI ≤ 0.5 is synergistic)
- MICUTBLP ([13]; plate with chloramphenicol): > 128 µg/mL
- MICUTBLP ([13]; plate with niclosamide): > 128 µg/mL
- MICUTBLP ([13]; plate with novobiocin): > 128 µg/mL
- MICUTBLP ([13]; plate with rifampicin): > 128 µg/mL
- MICUTBLP [MICcombo] [13, 24]: 32 µg/mL
- MICUTBLP [MICcombo] ([13]; UTBLP in combination with niclosamide): 8 µg/mL
- MICUTBLP [MICcombo] [13, 19]: 8 µg/mL
- MICUTBLP [MICcombo] [13, 20]: 8 µg/mL
- MICantibiotic [MICcombo] [13, 25]: 1 µg/mL
- MICantibiotic [MICcombo] ([13]; niclosamide in combination with the UTBLP): 0.5 µg/mL
- MICantibiotic [MICcombo] [13, 21]: 0.25 µg/mL
- MICantibiotic [MICcombo] [13, 22]: 0.125 µg/mL
- Interpretation ([14]; UTBLP + novobiocin): Synergy (FICI ≤ 0.5 is synergistic)
- Interpretation ([14]; UTBLP + rifampicin): Synergy (FICI ≤ 0.5 is synergistic)
- MICUTBLP ([14]; plate with novobiocin): > 128 µg/mL
- MICUTBLP ([14]; plate with rifampicin): > 128 µg/mL
- MICUTBLP [MICcombo] [14, 19]: 8 µg/mL
- MICUTBLP [MICcombo] [14, 20]: 8 µg/mL
- MICantibiotic [MICcombo] [14, 21]: 4 µg/mL
- MICantibiotic [MICcombo] [14, 22]: 0.125 µg/mL
- MIC [15]: 64 µg/mL (≈ 77.6 µM)
- MIC [16]: 128 µg/mL (≈ 155 µM)
- MIC [17]: 64 µg/mL (≈ 77.6 µM)
- Interpretation ([18]; UTBLP + chloramphenicol): Additive (0.5 < x ≤ 4 is additive)
- MICUTBLP [18, 23]: 128 µg/mL
- MICUTBLP [MICcombo] [18, 24]: 16 µg/mL
- MICchloramphenicol [MICcombo] [18, 25]: 2 µg/mL
